Patent publication US20240400586A1, “HETEROARYL DERIVATIVE PARP INHIBITOR AND USE THEREOF” (HAISCO PHARMACEUTICAL GROUP CO., LTD., priority 2021, published 2024)

Biological target: PARP-1 enzyme (Homo sapiens (Human), UniProt P09874)
Assay: PARP1 enzyme activity test (BPS Bioscience chemiluminescence kit)
Type: biochemical
From the text: Inhibition %=(1−(RLUsample−RLUmin)/(RLUmax−RLUmin))×100% (formula 1)

Chain of PARP-1 enzyme (P09874 whole entry): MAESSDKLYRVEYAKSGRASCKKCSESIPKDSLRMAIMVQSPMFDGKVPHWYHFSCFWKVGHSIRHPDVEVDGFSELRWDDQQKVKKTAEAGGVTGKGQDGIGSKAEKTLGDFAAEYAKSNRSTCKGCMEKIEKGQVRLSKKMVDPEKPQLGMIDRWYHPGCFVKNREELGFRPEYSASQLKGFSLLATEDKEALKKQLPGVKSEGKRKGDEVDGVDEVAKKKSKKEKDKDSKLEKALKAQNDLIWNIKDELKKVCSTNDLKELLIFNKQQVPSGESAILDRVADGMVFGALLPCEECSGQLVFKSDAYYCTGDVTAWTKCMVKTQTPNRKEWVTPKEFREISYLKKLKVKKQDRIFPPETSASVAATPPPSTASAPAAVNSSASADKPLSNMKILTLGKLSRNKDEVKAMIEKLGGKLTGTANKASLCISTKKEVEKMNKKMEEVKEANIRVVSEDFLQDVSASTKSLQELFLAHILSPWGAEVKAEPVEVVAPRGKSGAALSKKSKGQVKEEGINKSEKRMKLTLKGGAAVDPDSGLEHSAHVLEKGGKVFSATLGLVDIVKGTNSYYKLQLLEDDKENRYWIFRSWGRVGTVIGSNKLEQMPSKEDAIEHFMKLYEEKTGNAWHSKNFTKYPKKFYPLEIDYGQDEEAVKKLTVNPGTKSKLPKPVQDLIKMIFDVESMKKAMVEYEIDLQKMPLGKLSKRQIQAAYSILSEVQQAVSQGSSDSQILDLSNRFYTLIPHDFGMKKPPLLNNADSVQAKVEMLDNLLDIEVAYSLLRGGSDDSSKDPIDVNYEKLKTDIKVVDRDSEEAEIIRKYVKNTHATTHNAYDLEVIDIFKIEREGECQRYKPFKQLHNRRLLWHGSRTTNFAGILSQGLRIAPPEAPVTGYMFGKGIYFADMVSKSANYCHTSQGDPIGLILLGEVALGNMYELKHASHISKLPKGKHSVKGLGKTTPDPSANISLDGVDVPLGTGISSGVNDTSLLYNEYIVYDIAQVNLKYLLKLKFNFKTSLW

SMILES	IC50 [nM]
CCc1cc2ncc(CN3CCN(c4ccc(-c5nnc(C)o5)nc4)CC3)cc2[nH]c1=O [Compound 3, 3-ethyl-7-((4-(6-(5-methyl-1,3,4-oxadiazol-2-yl)pyridin-3-yl)piperazin-1-yl)methyl)-1,5-naphthyridin-2 (1H)-one]	1.33
CCc1cc2ncc(CN3CCN(c4cnc(C(=O)NC5CC5)cc4F)CC3)cc2[nH]c1=O [Compound 13, N-cyclopropyl-5-(4-((7-ethyl-6-oxo-5,6-dihydro-1,5-naphthyridin-3-yl)methyl)piperazin-1-yl)-4-fluoropicolinamide]	0.76
CCc1cc2ncc(CN3CCN(c4cnc(C(=O)NC)cc4F)CC3)cc2[nH]c1=O [Compound 12, 5-(4-((7-ethyl-6-oxo-5,6-dihydro-1,5-naphthyridin-3-yl)methyl)piperazin-1-yl)-4-fluoro-N-methylpicolinamide]	1.6
CCc1cc2ncc(CN3CCN(c4ccc(NC(C)=O)nc4)CC3)cc2[nH]c1=O [Compound 7, N-(5-(4-((7-ethyl-6-oxo-5,6-dihydro-1,5-naphthyridin-3-yl)methyl)piperazin-1-yl)pyridin-2-yl)acetamide]	0.32
CCc1cc2ncc(CN3CCN(c4ccc(NC(=O)OC)nc4)CC3)cc2[nH]c1=O [Compound 8, methyl(5-(4-((7-ethyl-6-oxo-5,6-dihydro-1,5-naphthyridin-3-yl)methyl)piperazin-1-yl)pyridin-2-yl)carbamate]	0.58
CCc1cc2ncc(CN3CCN(c4ccc(C(=O)N[C@@H]5CCNC5)nc4)CC3)cc2[nH]c1=O [Compound 18, (R)-5-(4-((7-ethyl-6-oxo-5,6-dihydro-1,5-naphthyridin-3-yl)methyl)piperazin-1-yl)-N-(pyrrolidin-3-yl)picolinamide]	0.33
CCc1cc2ncc(CN3CCN(c4ccc(C(=O)Nc5ccn(C)n5)nc4)CC3)cc2[nH]c1=O [Compound 48, 5-(4-((7-ethyl-6-oxo-5,6-dihydro-1,5-naphthyridin-3-yl)methyl)piperazin-1-yl)-N-(1-methyl-1H-pyrazol-3-yl)picolinamide]	0.35
CCc1cc2ncc(CN3CCN(c4ccc5c(c4)CN(C)C5=O)CC3)cc2[nH]c1=O [Compound 1, 3-ethyl-7-((4-(2-methyl-1-oxoisoindolin-5-yl)piperazin-1-yl)methyl)-1,5-naphthyridin-2 (1H)-one]	3.66
CCc1cc2ncc(CN3CCN(c4ccc5nc(C)cn5n4)CC3)cc2[nH]c1=O [Compound 27, 3-ethyl-7-((4-(2-methylimidazo[1,2-b]pyridazin-6-yl)piperazin-1-yl)methyl)-1,5-naphthyridin-2 (1H)-one]	0.75
CCc1cc2ncc(CN3CCN(c4cn5cc(C(F)(F)F)nc5cn4)CC3)cc2[nH]c1=O [Compound 43, 3-ethyl-7-((4-(2-(trifluoromethyl)imidazo[1,2-a]pyrazin-6-yl)piperazin-1-yl)methyl)-1,5-naphthyridin-2 (1H)-one]	0.93
CCc1cc2ncc(CN3CCN(c4cnc(C(=O)NC)cn4)CC3)cc2[nH]c1=O [Compound 2, 5-(4-((7-ethyl-6-oxo-5,6-dihydro-1,5-naphthyridin-3-yl)methyl)piperazin-1-yl)-N-methylpyrazine-2-carboxamide]	2.01
CCc1cc2ncc(CN3CCN(c4ccc(-c5ccn[nH]5)nc4)CC3)cc2[nH]c1=O [Compound 30, 7-((4-(6-(1H-pyrazol-5-yl)pyridin-3-yl)piperazin-1-yl)methyl)-3-ethyl-1,5-naphthyridin-2 (1H)-one]	0.45
CCc1cc2ncc(CN3CCN(c4ccc(Nc5ccn(C)n5)nc4)CC3)cc2[nH]c1=O [Compound 32, 3-ethyl-7-((4-(6-((1-methyl-1H-pyrazol-3-yl)amino)pyridin-3-yl)piperazin-1-yl)methyl)-1,5-naphthyridin-2 (1H)-one]	2
CCc1cc2ncc(CN3CCN(c4cn5cc(C)nc5cn4)CC3)cc2[nH]c1=O [Compound 15, 3-ethyl-7-((4-(2-methylimidazo[1,2-a]pyrazin-6-yl)piperazin-1-yl)methyl)-1,5-naphthyridin-2 (1H)-one]	0.65
